The experiment deals with GBM lines. As to the kind of experiment: TMZ/IR titrated across a panel of GBM lines with a fixed dose of BCLXL inhibitor, cell death. Format: cell-based. Particulars: TMZ/IR titrated with a fixed dose of A1155463. The source says:
In the triplet of histogram bars for each dosage, the left bar represents all data (TMZR/IR alone, n=17), the center bar represents p53 WT+BCLXL In. (n=12), and the right bar represents p53 mutants+BCLXL In. (n=5). […] To investigate if BCL-xL is preventing the standard of care from inducing apoptosis, TMZ/IR were titrated in across a panel of genetically diverse GBM lines (n=17) with a fixed dose of BCLXL inhibitor (A1155463).

“Also recorded” adds a separate entry of the source.

For `CN(C)CC#Cc1ccc(OCCCc2sc(N3CCc4cccc(C(=O)Nc5nc6ccccc6s5)c4C3)nc2C(=O)O)c(F)c1` [A1155463], the cell death entry was “no added benefit” (p53 mutant GBM, panel n=17 (p53 mutants n=5)) and “significantly increase cell death; also recorded: increases cell death” (p53 wild type GBM, panel n=17 (p53 WT n=12)).

The values are drawn from patent US20230040125A1, “TARGETING THE INTRINSIC APOPTOTIC MACHINERY IN GLIOBLASTOMA” (The Regents of The University Of California, priority 2019, published 2023).
